# Reference: PMC12567041 (Pharmaceutics, 2025)
# Values joined by “and” are separate entries in the source; they are usually repeats but may differ in a detail not shown here. Identical values can stand only once. “Also recorded” adds a separate entry of the source.
# Tests used:
# [1] = Two-stage dissolution FaSSGF to FaSSIF; type: physicochemical; settings: doses up to 200 mg
# Method: […]. […] In vitro two-stage dissolution experiments, during which the drug/formulation is pre-exposed to fasted-state simulated gastric fluid (FaSSGF) for a 30 min period, at the end of which, properly concentrated fasted-state simulated intestinal fluid (FaSSIF) is immediately added to FaSSGF [13], were performed to assess the risk of precipitation in vitro. […] Considering the high passive permeability, this indicates low risk for compromised absorption in vivo, further supporting the assumption of the complete absorption of asciminib in humans in the fasted state.
# [2] = Biopharmaceutics classification; type: physicochemical
# [3] = Fraction unbound in microsomal incubation (fumic); type: in vitro ADME; settings: for fraction unbound: human, microsomes (microsomal incubation)
# CYP3A4/5 = assay: Time-dependent inhibition of CYP3A4/5; type: in vitro ADME; settings: up to 50 μM; in-house data
# [4] = Relative contributions of clearance pathways (fm/fe/ft); set-up: species or system human
# Source text: However, as discussed below, the in vivo contribution of UGTs was later adjusted downward to account for BCRP-mediated biliary excretion.
# The contributions of CYP enzymes and renal elimination remained unchanged. […] A summary of the Simcyp output for elimination pathways, with and without BCRP, is provided in Supplementary Table S1.
# [5] = Clinical DDI studies, asciminib as victim (observed); type: in vivo, human; settings: asciminib 200 mg single dose + phenytoin 100 mg TID
# [6] = Compartmental concentrations for static DDI risk assessment; set-up: species or system human
# [7] = cited from earlier work
# CYP3A4 [8] = tested on: CYP3A4
# [9] = in vitro, mean (SD); cited from earlier work
# CYP2J2 [10] = settings: Km*fumic; read-out: Km,u (CYP2J2), mean (SD); cited from earlier work
# [11] = HLMs; cited from earlier work
# [12] = cited from earlier work; remark: listed apart in the source
# [13] = 40 mg dose; cited from earlier work
# [14] = with strong P-gp inhibitor quinidine; cited from earlier work
# [15] = cited from earlier work; remark: listed apart in the source
# [16] = cited from earlier work; remark: listed apart in the source
# in vitro = settings: MDCK
# CYP3A4 [17] = assay: Enzyme kinetics, recombinant CYP3A4; settings: back-calculated, aim for fm = 0.351
# Source text: (§1) Using the Simcyp retrograde model, initial estimates of intrinsic clearance (CLint,u) were derived based on fractional contributions from recombinant human CYP and UGT enzymes, as well as additional intrinsic clearance in HLMs attributed to hydrolysis. Enzyme kinetic parameters (Km and Vmax) were used to establish the model, with Vmax values back-calculated as the product of CLint,u and Km to match the observed fm values to the total clearance.
# CYP2J2 [18] = assay: Enzyme kinetics, recombinant CYP2J2; settings: back-calculated, aim for fm = 0.0076
# Source text: as §1
# MDCK-LE cell line = assay: Apparent passive permeability in MDCK-LE cells; settings: from MDCK-LE permeability
# [19] = Preclinical volume of distribution across animal species; settings: in vivo
# Source text: Due to the inclusion of hepatic efflux transporters in Simcyp, the whole-body PBPK model was employed. […] However, the passive diffusion clearance (CLPD) in the PerL increases the Vss by moving the drug into the liver. A top-down approach was applied to adjust the Kp scalar to visually best fit the model to the distribution phase of the observed clinical PK data.
# [20] = Table S1, sum of hepatic and renal UGT contributions
# [21] = assuming no active biliary secretion
smiles,measurement,setting,value
O=C(Nc1ccc(OC(F)(F)Cl)cc1)c1cnc(N2CC[C@@H](O)C2)c(-c2ccn[nH]2)c1 [asciminib],duration of sustained supersaturation,[1],at least 1 h
same,precipitation in vitro,[1],< 20%
same,biopharmaceutics classification system (BCS) class,[2],class II
same,fumic,[3]; 0.810 mg of protein/mL (CYP3A4 incubation),0.160
same,fumic,[3]; 1.40 mg of protein/mL (CYP2J2 incubation),0.0925
same,fumic,[3]; 1.5 mg of protein/mL (UGT incubation),0.0811
same,fumic,[3]; 1.58 mg of protein/mL (CYP2C8 incubation),0.0829
same,fumic,[3]; 1.86 mg of protein/mL (CYP2D6 incubation),0.0680
same,fraction unbound,[3]; 0.025 mg/mL of protein,0.871
same,fraction unbound,[3]; 0.05 mg/mL of protein,0.75
same,fraction unbound,[3]; 0.5 mg/mL of protein,0.208
same,time-dependent inhibition (TDI) of CYP3A4/5,CYP3A4/5,no apparent TDI; also recorded: no in vitro apparent time-dependent inhibition
same,"CYP2C8: aim for fm/fe/ft, Simcyp output (without BCRP)",[4]; Table S1,0.007
same,"CYP2C8: aim for fm/fe/ft, final fm (including hepatic BCRP)",[4]; Table S1,0.005
same,CYP2C8: fm/fe based on hADME,[4]; Table S1,0.005
same,"CYP2D6: aim for fm/fe/ft, Simcyp output (without BCRP)",[4]; Table S1,0.003
same,"CYP2D6: aim for fm/fe/ft, final fm (including hepatic BCRP)",[4]; Table S1,0.002
same,CYP2D6: fm/fe based on hADME,[4]; Table S1,0.002
same,"CYP2J2: aim for fm/fe/ft, Simcyp output (without BCRP)",[4]; Table S1,0.011
same,"CYP2J2: aim for fm/fe/ft, final fm (including hepatic BCRP)",[4]; Table S1,0.0076
same,CYP2J2: fm/fe based on hADME,[4]; Table S1,0.0076
same,"CYP3A4: aim for fm/fe/ft, Simcyp output (without BCRP)",[4]; Table S1,0.509
same,"CYP3A4: aim for fm/fe/ft, final fm (including hepatic BCRP)",[4]; Table S1,0.351
same,CYP3A4: fm/fe based on hADME,[4]; Table S1,0.351
same,"Hepatic BCRP: aim for fm/fe/ft, final fm (including hepatic BCRP)",[4]; Table S1,0.311
same,"Hydrolysis: aim for fm/fe/ft, Simcyp output (without BCRP)",[4]; Table S1,0.010
same,"Hydrolysis: aim for fm/fe/ft, final fm (including hepatic BCRP)",[4]; Table S1,0.007
same,Hydrolysis: fm/fe based on hADME,[4]; Table S1,0.007
same,"Renal excretion: aim for fm/fe/ft, Simcyp output (without BCRP)",[4]; Table S1,0.035
same,"Renal excretion: aim for fm/fe/ft, final fm (including hepatic BCRP)",[4]; Table S1,0.044
same,Renal excretion: fm/fe based on hADME,[4]; Table S1,0.044
same,"UGT1A3: aim for fm/fe/ft, Simcyp output (without BCRP)",[4]; Table S1,0.048
same,"UGT1A3: aim for fm/fe/ft, final fm (including hepatic BCRP)",[4]; Table S1,0.033
same,UGT1A3: fm/fe based on hADME,[4]; Table S1,0.0705
same,"UGT1A4: aim for fm/fe/ft, Simcyp output (without BCRP)",[4]; Table S1,0.048
same,"UGT1A4: aim for fm/fe/ft, final fm (including hepatic BCRP)",[4]; Table S1,0.033
same,"UGT2B7: aim for fm/fe/ft, Simcyp output (without BCRP)",[4]; Table S1,0.190
same,"UGT2B7: aim for fm/fe/ft, final fm (including hepatic BCRP)",[4]; Table S1,0.131
same,"UGT2B17: aim for fm/fe/ft, Simcyp output (without BCRP)",[4]; Table S1,0.110
same,"UGT2B17: aim for fm/fe/ft, final fm (including hepatic BCRP)",[4]; Table S1,0.076
same,UGT2B17: fm/fe based on hADME,[4]; Table S1,0.163
same,UGT1A4: fm/fe based on hADME,[4]; [20],0.0705
same,UGT2B7: fm/fe based on hADME,[4]; [20],0.279
same,revised total UGT contribution to total clearance,[4]; after subtracting BCRP contribution,approximately 27.3%
same,CYP-mediated contribution to total clearance,[4]; [21],36.6%
same,UGT-mediated contribution to total clearance,[4]; [21],58.3%
same,"reduction of AUCinf, observed",[5],34%
same,"reduction of Cmax, observed",[5],22%
same,Cgut (maximal gut concentration),[6]; 40 mg BID,356 µM
same,"Cgut,ent (maximal enterocyte concentration)",[6]; 40 mg BID,10.5 µM
same,"Ch,in,tot (total maximal hepatic inlet plasma concentration)",[6]; 40 mg BID,4.47 µM
same,"Ch,in,u (unbound maximal hepatic inlet plasma concentration at the steady state)",[6]; 40 mg BID,0.121 µM
same,Cgut (maximal gut concentration),[6]; 80 mg QD,711 µM
same,"Cgut,ent (maximal enterocyte concentration)",[6]; 80 mg QD,20.9 µM
same,"Ch,in,tot (total maximal hepatic inlet plasma concentration)",[6]; 80 mg QD,9.38 µM
same,"Ch,in,u (unbound maximal hepatic inlet plasma concentration at the steady state)",[6]; 80 mg QD,0.253 µM
same,Cgut (maximal gut concentration),[6]; 200 mg BID,1778 µM
same,"Cgut,ent (maximal enterocyte concentration)",[6]; 200 mg BID,52.4 µM
same,"Ch,in,tot (total maximal hepatic inlet plasma concentration)",[6]; 200 mg BID,26.1 µM
same,"Ch,in,u (unbound maximal hepatic inlet plasma concentration at the steady state)",[6]; 200 mg BID,0.704 µM
same,estimated gastrointestinal luminal concentration,[6]; lowest clinical dose 20 mg,~ 178 μM
same,Log P: Octanol–water partition/logD pH 6.8,[7],3.9
same,"Emax (CYP3A4), non-calibrated",CYP3A4 [8],Non-calibrated Emax = 4.4 In-house data fold
same,"Indmax (=Emax + 1) (CYP3A4), in vitro measured",CYP3A4 [8],5.4 fold
same,fup (fraction unbound in plasma),[9],0.027 (0.011)
same,Km,CYP2J2 [10],0.694 µM
same,share of metabolism by glucuronidation,[11],~ 65%
same,share of metabolism by oxidative metabolism,[11],~ 35%
same,unchanged asciminib in urine,[12],4.4 % of the administered radioactive dose
same,parent asciminib in feces due to back-conversion of M30.5,[12]; estimated from late-time-point feces profile,24%
same,CLr (renal clearance),[12]; healthy,1.8 mL/min/1.73 m^2
same,unchanged asciminib in cumulative feces,"[12]; pooled 0–96 h or 0–168 h, average",56.7 % of the dose
same,AUC in cancer patients,[13],5.8 to 6.1 µg·h/mL
same,decrease of asciminib AUC,[14],13%
same,decrease of asciminib Cmax,[14],11%
same,"exposure reduction, high-fat fed",[15],70%
same,"exposure reduction, low-fat fed",[15],33%
same,flux in presence of elevated bile acid concentrations (FeSSIF),[16],reduced asciminib flux
same,recovery,in vitro; dog,88%
same,Papp,in vitro; human,3730 nm/s
same,Vmax (CYP3A4),CYP3A4 [17],3.8 pmol/min/pmol of CYP
same,Vmax (CYP2J2),CYP2J2 [18],0.355 pmol/min/pmol CYP
same,predicted fraction absorbed (fa),MDCK-LE cell line,93% and ~ 93%
same,Vd,[19],0.5 to 2.2 L/kg
